The values below come from article PMC12670400, “LEKTI-Grafted Sunflower Trypsin Inhibitor: A Potential Therapeutic for Skin Diseases” (Journal of Medicinal Chemistry, 2025).

Experiment [1] concerns endogenous KLK5 of healthy donor keratinocytes. Nature of the experiment: KLK5 protease activity assay for culture medium of healthy donor keratinocytes. It counts as biochemical, human. Conditions: 100 nM, 1 μM, 10 μM; p > 0.05, n = 9. As to the method: To evaluate the inhibition of lead 7 on endogenous KLK5 activity, media collected from cultured NS keratinocytes and healthy donor keratinocytes were incubated with lead 7 at the final concentration of 100 nM, or 1 μM, or 10 μM for one hour. Media were then concentrated, and KLK5 activity was measured. […] There were significant differences in KLK5 activity before and after treatment (p < 0.05, n = 3). […] This may be because lead 7 exerts inhibitory effects only when KLK5 activity exceeds a certain threshold, which is not reached in keratinocytes from healthy donors. It was noted that the activity of KLK5 in NS was not reduced to the levels observed in normal keratinocytes. […]
calcium signalling. […] Fluorescence excitation was set at 485 nm, and emission was recorded at 520 nm using SpectraMax® i3x plate reader. […]
Keratinocytes were seeded in 6 well plate with the density of 0.2 × 10⁶ cells per well and cultured in RM+ medium until they reached confluency. […] The enzymatic reaction was initiated by adding 100 µL of Boc-VPR-AMC substrate (final concentration 100 µM) to each well and RFU values in samples were measured. Protease activities were expressed as nmol/g by first converting RFU readings to KLK5 equivalent concentration activity using a KLK5 standard curve, followed by normalization to total protein content

A further experiment deals with NS keratinocytes. Put plainly: Transepithelial electrical resistance (TEER) assay, NS keratinocytes. It counts as cell-based, human. Conditions: 1 μM, 9 days, p < 0.05, n = 18. From the text:
KLK5 regulates epidermal barrier homeostasis by targeting corneodesmosomal proteins involved in cell–cell adhesion, including desmoglein-1 (DSG1), desmocollin-1 (DSC1), and corneodesmosin (CDSN). Dysregulated KLK5 activity can accelerate the degradation of these adhesion molecules, leading to impaired corneocyte cohesion and disruption of the epithelial barrier. To assess whether control of KLK5 activity by lead 7 could improve barrier integrity, the resistance of epidermal sheets generated using NS and healthy donor keratinocytes was measured using a transepithelial electrical resistance (TEER) assay. Keratinocytes from NS keratinocyte and three healthy donors were seeded in 6-well plates and cultured in the medium with 1 μM of lead 7 or without. The medium was replaced every 3 days with fresh lead 7 added in the treated groups. TEER measurements were performed every other day, and cultures were maintained until TEER values reached a plateau (9 days).
Transepithelial Electrical Resistance (TEER) assay […]
Transepithelial electrical resistance (TEER) values in ohms (Ω) were measured using the EVOM™ Manual Resistance Meter (World Precision Instruments, cat no. EVM-MT-03-02). Background resistance was first recorded using inserts containing only medium (without cells). […]
One-way ANOVA was used for KLK5 activity study. […] TEER study data was analysed using the Wilcoxon […]

Bridge positions count the residues as written; N and C are the ends. Peptide text beside a SMILES is read from it.

`C[C@@H](O)[C@@H]1NC(=O)[C@@H]2CSSC[C@H](NC(=O)[C@H](CCC(=O)O)NC(=O)[C@@H]3CCCN3C(=O)[C@@H]3CCCN3C(=O)[C@H](CC(N)=O)NC(=O)[C@H](CO)NC(=O)[C@H](CCCNC(=N)N)NC1=O)C(=O)N[C@@H](Cc1c[nH]c3ccccc13)C(=O)N1CCC[C@H]1C(=O)N[C@@H](CC(N)=O)C(=O)NCC(=O)N[C@@H](Cc1ccccc1)C(=O)N2` [compound 7] (cyclo(GFCTRSNPPECWPN); disulfide 3-11): in experiment [1], the “KLK5 activity before and after treatment, normal donor keratinocytes” value is listed as “no significant differences”. In addition, the “TEER, treated versus untreated NS keratinocytes” value in the experiment with NS keratinocytes was “obvious increase in TEER values”.
